{"source": "paper PMC8325370", "about": "(Proceedings of the National Academy of Sciences of the …, 2021)", "biological_target": "T1, homomeric A2 channels (wt CNGA2) (Rattus norvegicus, UniProt Q00195)", "T1 sequence (Q00195 1-664)": "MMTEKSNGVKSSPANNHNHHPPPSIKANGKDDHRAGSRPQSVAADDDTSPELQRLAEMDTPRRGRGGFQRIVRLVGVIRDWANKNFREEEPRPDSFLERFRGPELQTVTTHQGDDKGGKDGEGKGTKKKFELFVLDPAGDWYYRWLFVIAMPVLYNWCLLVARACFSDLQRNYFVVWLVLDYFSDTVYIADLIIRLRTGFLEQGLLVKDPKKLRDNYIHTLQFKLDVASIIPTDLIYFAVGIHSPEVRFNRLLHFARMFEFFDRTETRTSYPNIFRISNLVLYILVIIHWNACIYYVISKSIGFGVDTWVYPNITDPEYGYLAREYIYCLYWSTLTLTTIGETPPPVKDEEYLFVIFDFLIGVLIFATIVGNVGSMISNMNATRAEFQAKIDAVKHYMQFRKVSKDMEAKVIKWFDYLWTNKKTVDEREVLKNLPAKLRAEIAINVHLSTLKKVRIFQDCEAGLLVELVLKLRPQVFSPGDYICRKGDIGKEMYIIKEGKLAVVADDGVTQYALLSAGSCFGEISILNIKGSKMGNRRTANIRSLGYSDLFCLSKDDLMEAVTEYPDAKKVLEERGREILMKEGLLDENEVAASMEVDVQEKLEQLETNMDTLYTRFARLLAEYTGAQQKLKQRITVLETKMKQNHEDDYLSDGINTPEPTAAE", "experiment": "inside-out patch clamp, macroscopic current", "format": "biochemical", "conditions": "agonist; +100 mV, 150 mM KCl, pH 7.4; Xenopus oocytes"}
{"compound": "Nc1nc2c(ncn2[C@@H]2O[C@@H]3COP(=O)(O)O[C@H]3[C@H]2O)c(=O)[nH]1", "note": "[cGMP]", "values": [{"measurement": "EC50", "value": "concentration–activation relationships to homomeric A2 channels"}]}
